According to ChEMBL document CHEMBL1201862, “PubChem BioAssay data set” (2004):
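These data come from cells grown in 96-well plates and exposed to compound for 48 hours at five concentrations. GI50 = concentration required for 50% inhibition of growth.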 The source made the active and inactive calls. Cut-off read from the data, not from the text of the source: active = GI50 up to about 1.1 µM and inactive = higher.

Experiments:
Assay in all cases: NCI tumour cell line growth inhibition, 48 h
HT-29 = tested on: HT-29
SK-MEL-28 = tested on: SK-MEL-28
CCRF-CEM = tested on: CCRF-CEM
UO-31 = tested on: UO-31
MOLT-4 = tested on: MOLT-4
NCI-H226 = tested on: NCI-H226
HL-60 = tested on: HL-60
OVCAR-5 = tested on: OVCAR-5
SK-MEL-5 = tested on: SK-MEL-5
Malme-3M = tested on: Malme-3M
HCC 2998 = tested on: HCC 2998
TK-10 = tested on: TK-10
SNB-19 = tested on: SNB-19
LOX IMVI = tested on: LOX IMVI
NCI-H460 = tested on: NCI-H460
A549 = tested on: A549

Measured: GI50

CC1CC2=Nc3ccccc3NC(c3ccccc3)C2=C(O)O1 (configuration not stated)
inactive: HT-29 > 100 µM | SK-MEL-28 > 100 µM | CCRF-CEM > 100 µM | UO-31 > 100 µM | MOLT-4 > 100 µM | NCI-H226 > 100 µM | HL-60 > 100 µM | OVCAR-5 > 100 µM | SK-MEL-5 > 100 µM | Malme-3M > 100 µM | HCC 2998 > 100 µM | TK-10 > 100 µM | SNB-19 > 100 µM | LOX IMVI > 100 µM | NCI-H460 > 100 µM | A549 > 100 µM

CCOC(=O)C1=C(Nc2ccccc2)OC/C1=N\NC(=O)Cc1ccccc1
inactive: HT-29 > 50 µM | SK-MEL-28 > 50 µM | CCRF-CEM > 50 µM | UO-31 > 50 µM | MOLT-4 > 50 µM | NCI-H226 > 50 µM | HL-60 > 50 µM | OVCAR-5 > 50 µM | SK-MEL-5 > 50 µM | Malme-3M > 50 µM | HCC 2998 > 50 µM | TK-10 > 50 µM | SNB-19 > 50 µM | LOX IMVI > 50 µM | NCI-H460 > 50 µM | A549 > 50 µM

CSc1nc(NC(=O)O)c(N(C(C)=O)C(=O)O)c(=O)n1C
inactive: HT-29 > 100 µM | SK-MEL-28 > 100 µM | CCRF-CEM > 100 µM | UO-31 > 100 µM | MOLT-4 > 100 µM | NCI-H226 > 100 µM | HL-60 > 100 µM | OVCAR-5 > 100 µM | SK-MEL-5 > 100 µM | Malme-3M > 100 µM | HCC 2998 > 100 µM | SNB-19 > 100 µM | LOX IMVI > 100 µM | NCI-H460 > 100 µM | A549 > 100 µM

CN(CCO)c1nc(=O)c2c([nH]1)CCC2
inactive: HT-29 > 100 µM | SK-MEL-28 > 100 µM | CCRF-CEM > 100 µM | UO-31 > 100 µM | MOLT-4 > 100 µM | NCI-H226 > 100 µM | HL-60 > 100 µM | OVCAR-5 > 100 µM | SK-MEL-5 > 100 µM | Malme-3M > 100 µM | HCC 2998 > 100 µM | TK-10 > 100 µM | SNB-19 > 100 µM | LOX IMVI > 100 µM | NCI-H460 > 100 µM | A549 > 100 µM

CCCCN(CCCC)C(=O)C(=O)C(C#N)c1ccc(C)cc1 (configuration not stated)
inactive: HT-29 > 100 µM | SK-MEL-28 > 100 µM | CCRF-CEM > 100 µM | UO-31 > 100 µM | MOLT-4 > 100 µM | NCI-H226 > 100 µM | HL-60 > 100 µM | OVCAR-5 > 100 µM | SK-MEL-5 > 100 µM | Malme-3M > 100 µM | HCC 2998 > 100 µM | TK-10 > 100 µM | SNB-19 > 100 µM | LOX IMVI > 100 µM | NCI-H460 > 100 µM | A549 > 100 µM

CCC1=CCN(c2cc(C)ccn2)OC1c1ccc(OC)cc1 (configuration not stated)
inactive: HT-29 21.6 µM | SK-MEL-28 24.1 µM | CCRF-CEM 23.7 µM | UO-31 25.6 µM | MOLT-4 26.9 µM | NCI-H226 38.3 µM | HL-60 22.5 µM | OVCAR-5 26.5 µM | SK-MEL-5 16.9 µM | Malme-3M 27 µM | HCC 2998 40.6 µM | SNB-19 46.1 µM | LOX IMVI 30.1 µM | NCI-H460 31.7 µM | A549 35.2 µM

COC(=O)/C(C#N)=C1\CCC(O)N1C (configuration not stated)
inactive: HT-29 > 100 µM | SK-MEL-28 > 100 µM | CCRF-CEM > 100 µM | UO-31 > 100 µM | MOLT-4 > 100 µM | NCI-H226 > 100 µM | HL-60 > 100 µM | OVCAR-5 > 100 µM | Malme-3M > 100 µM | HCC 2998 > 100 µM | TK-10 > 100 µM | SNB-19 > 100 µM | LOX IMVI > 100 µM | NCI-H460 > 100 µM | A549 > 100 µM

C=CCNC1=NC(=O)C(CC(=O)Nc2cccc(Cl)c2)S1 (configuration not stated)
inactive: HT-29 > 100 µM | SK-MEL-28 > 100 µM | CCRF-CEM > 100 µM | UO-31 > 100 µM | MOLT-4 > 100 µM | NCI-H226 > 100 µM | HL-60 > 100 µM | OVCAR-5 > 100 µM | SK-MEL-5 > 100 µM | Malme-3M > 100 µM | HCC 2998 > 100 µM | TK-10 > 100 µM | SNB-19 > 100 µM | LOX IMVI > 100 µM | NCI-H460 > 100 µM | A549 > 100 µM

CC(=O)O[C@H]1CC[C@@]2(C)C(=CC[C@@H]3C2CC[C@]2(C)C(=O)NC(=O)CC32)C1 (some centres not stated)
inactive: HT-29 97.5 µM | SK-MEL-28 53.5 µM | CCRF-CEM > 73.8 µM | UO-31 > 100 µM | MOLT-4 > 100 µM | NCI-H226 > 100 µM | HL-60 > 63.1 µM | OVCAR-5 > 100 µM | SK-MEL-5 > 100 µM | Malme-3M > 100 µM | HCC 2998 > 100 µM | TK-10 > 100 µM | SNB-19 > 100 µM | LOX IMVI 40.3 µM | NCI-H460 > 100 µM | A549 > 100 µM

CC(=O)NC1=C(NCC(C)(C)C)C(=O)c2ccccc2C1=O
inactive: HT-29 > 100 µM | SK-MEL-28 > 100 µM | CCRF-CEM 38.5 µM | UO-31 46.3 µM | MOLT-4 57.3 µM | NCI-H226 > 100 µM | HL-60 32.1 µM | SK-MEL-5 40.2 µM | Malme-3M 34.3 µM | HCC 2998 > 100 µM | TK-10 > 100 µM | SNB-19 > 100 µM | LOX IMVI 66.8 µM | NCI-H460 98.4 µM | A549 > 100 µM

CC(C)(C)C1=NO[C@H]2[C@@H](NC(=O)c3ccccc3)CC[C@@H]12
inactive: HT-29 > 100 µM | SK-MEL-28 > 100 µM | CCRF-CEM > 100 µM | UO-31 > 100 µM | MOLT-4 > 100 µM | NCI-H226 > 100 µM | HL-60 > 100 µM | OVCAR-5 > 100 µM | SK-MEL-5 > 100 µM | Malme-3M > 100 µM | HCC 2998 > 100 µM | TK-10 > 100 µM | SNB-19 > 100 µM | LOX IMVI > 100 µM | NCI-H460 > 100 µM | A549 > 100 µM

CC(=O)OC(C)(C)C[N+](=O)[O-]
inactive: HT-29 > 100 µM | SK-MEL-28 > 100 µM | CCRF-CEM > 100 µM | UO-31 > 100 µM | MOLT-4 > 100 µM | NCI-H226 > 100 µM | HL-60 26 µM | OVCAR-5 > 100 µM | Malme-3M > 100 µM | HCC 2998 > 100 µM | TK-10 > 100 µM | SNB-19 > 100 µM | LOX IMVI > 100 µM | NCI-H460 > 100 µM | A549 > 100 µM

CC(C(=O)C(C)O[Si](c1ccccc1)(c1ccccc1)C(C)(C)C)=P(c1ccccc1)(c1ccccc1)c1ccccc1 (configuration not stated)
inactive: HT-29 3.08 µM | CCRF-CEM 3.5 µM | UO-31 5.28 µM | MOLT-4 2.95 µM | NCI-H226 3.3 µM | HL-60 1.91 µM | OVCAR-5 11 µM | SK-MEL-5 2.75 µM | Malme-3M 3.13 µM | HCC 2998 3.57 µM | TK-10 4.76 µM | SNB-19 3.96 µM | LOX IMVI 3.29 µM | NCI-H460 3.69 µM | A549 3.3 µM
